Experiments:
Type in all cases: cell-based, human
A375 cells = experiment: Invasion assay (Matrigel), A375; settings: 1 μM, 24 h, with greater potency than SCH772984
Procedure: (§1) Invasion assays. Cells were grown in medium containing 10% FBS in 24-well plates. The following day the cells were scratched with a sterile toothpick, washed with PBS, and overlayed with 90% Matrigel (cat. no. 354230, Corning) (200 μl/well) containing vehicle, BT2 or SCH772984 at 1 μM. The cells were immediately photographed under a 10× objective using an Olympus CKX41 microscope, incubated at 37° C. for 1 h, and medium (800 μl/well) containing 10% FBS with vehicle, BT2 or SCH772984 at 1 μM was added. After 24 or 48 h, the cells were again photographed under a 10× objective using the same microscope. To assess the effect of BT2 on melanoma cell migration, A375 and MeWo cells were incubated with 1 μM of BT2 or SCH772984, and A375 and MeWo migration into the denuded zone was quantified after 24 or 48 h, respectively.

MeWo cells = experiment: Invasion assay (Matrigel), MeWo; settings: 1 μM, 48 h, with greater potency than SCH772984
Procedure: as §1

p-ERK (Thr^202/Tyr^204) = experiment: Western blotting for p-ERK, MeWo melanoma cells; settings: 10 or 100 nM, 24 h
Procedure: (§2) Western blotting. Cells were treated with compounds and times indicated and total cell lysates were prepared in RIPA buffer. Lysates (10 μg) were resolved by SDS-PAGE and transferred to Immobilon-P polyvinylidene difluoride (PVDF) membranes (Millipore, USA).
Membranes were blocked with 5% skim milk and incubated with rabbit monoclonal anti-c-Jun (Abcam, cat. no. ab32137; mouse, rat and human reactive) antibody, rabbit monoclonal anti-PD-1 (Abcam, cat. no. ab214421) antibody, mouse monoclonal β-actin antibody (Sigma-Aldrich, cat. no. A5316), anti-phospho-SAPK/JNK (Thr^183/Tyr^185) (98F2) (CST, cat. no. 4671) antibody, anti-phospho-p44/42 MAPK (ERK1/2) (Thr^202/Tyr^204) (D13.14.4E) (CST, cat. no. 4370) antibody, anti-phospho-p38 MAPK (Thr^180/Tyr^182) (D3F9) (CST, cat. no. 4511) antibody, anti-SAPK/JNK antibody (CST, cat. no. 9252), anti-p44/42 MAPK (ERK1/2) (137F5) antibody (CST, cat. no. […] Chemiluminescence was detected using the Western Lightning Chemiluminescence system (Thermo Scientific, USA) and ImageQuant™ LAS 4000 biomolecular imager (GE Healthcare Life Sciences, USA). Band intensity in images generated with the LAS 4000 was quantified using NIH Image J.
The effect of BT2 on ERK phosphorylation (p-ERK) was evaluated in human melanoma cells given that MAP kinase activation is key to melanoma progression and the paucity of clinically approved ERK inhibitors. […]

PD-1 [1] = experiment: Flow cytometry with anti-PD-1 antibodies, Jurkat T cells; settings: for inhibition of PD-1 levels: time course (FIG. 17C)
Procedure: Flow cytometry with anti-PD-1 antibodies. Jurkat T cells were grown in 6 well plates containing RPMI 1640 and 10% FBS. After 24 h, the cells were treated with various concentrations of BT2 or BT3 for 48 h. Alternatively, the cells were incubated with 3 μM BT2 for various times. After treatment, the cells were washed with PBS, and centrifuged at 300×g for 5 min, and resuspended at 5×10^6 cells/ml. The cells were then incubated with BV421 conjugated mouse anti-human CD279 (PD-1) (BD, cat. no. 562516) or BV421 conjugated mouse IgG1 (BD, cat. no. 562438) for 45 min at 22° C. Cells were then washed twice with 1 ml of Stain Buffer, centrifuged and pellets were resuspended in 0.5 ml Stain Buffer. Stained cell suspensions were analyzed by flow cytometry using a BD FACSCanto (II).
Jurkat T cells express PD-1 (Yi et al., 2023) and are widely used as model human T cells (e.g., Repas et al., 2022). […] BT2's effects were not only dose-dependent but time-dependent. BT2 (3 μM) inhibited PD-1 levels by 50% after 24 h and by 80% after 48 h (FIG. 17C).

PD-1 [2] = experiment: Western blotting for PD-1, Jurkat T cells; settings: various concentrations, 24 h
Procedure: as §2
Membranes were blocked with 5% skim milk and incubated with rabbit monoclonal anti-c-Jun (Abcam, cat. no. ab32137; mouse, rat and human reactive) antibody, rabbit monoclonal anti-PD-1 (Abcam, cat. no. ab214421) antibody, mouse monoclonal β-actin antibody (Sigma-Aldrich, cat. no. A5316), anti-phospho-SAPK/JNK (Thr^183/Tyr^185) (98F2) (CST, cat. no. 4671) antibody, anti-phospho-p44/42 MAPK (ERK1/2) (Thr^202/Tyr^204) (D13.14.4E) (CST, cat. no. 4370) antibody, anti-phospho-p38 MAPK (Thr^180/Tyr^182) (D3F9) (CST, cat. no. 4511) antibody, anti-SAPK/JNK antibody (CST, cat. no. 9252), anti-p44/42 MAPK (ERK1/2) (137F5) antibody (CST, cat. no. 4695), anti-p38 MAPK antibody (CST, cat. no. 9212), anti-DUSP8 antibody (Abcam, cat. no. ab198175) or anti-c-MAF (BLR045F) antibody (Abcam, cat. no. ab243901). This was followed by incubation with horseradish peroxidase-conjugated secondary goat anti-rabbit (DAKO, cat. no. P0448) or goat anti-mouse (DAKO, cat. no. P0447) antibody. Chemiluminescence was detected using the Western Lightning Chemiluminescence system (Thermo Scientific, USA) and ImageQuant™ LAS 4000 biomolecular imager (GE Healthcare Life Sciences, USA). Band intensity in images generated with the LAS 4000 was quantified using NIH Image J.

CD28 = CD28 blockade experiment, JUN Western blot in Jurkat T cells; settings: 3 μM BT2 and 3 μM EGF, 24 h
Procedure: CD28 blockade experiments. BT2 (3 nmol), vehicle or a mix of BT2 (3 nmol) and recombinant CD28 (3 nmol, Sino biological cat. no. 90182-C08H) or EGF (3 nmol, Sigma cat. no. E9644) in 150 μl growth medium (10% FBS/RPMI 1640 medium) was preincubated for 30 min at 37° C. The mixtures were added to 12-well plates containing 850 μl of 10% FBS/RPMI 1640 medium and 0.5×10^6 Jurkat T cells/well. After 24 h, total cell lysates were prepared in RIPA buffer. Lysates (10 μg) were resolved by SDS-PAGE and transferred to Immobilon-P polyvinylidene difluoride (PVDF) membranes (Millipore, USA). Membranes were blocked with 5% skim milk and incubated with rabbit monoclonal anti-JUN (Abcam, cat. no. ab32137) antibody, mouse monoclonal β-actin antibody (Sigma-Aldrich, cat. no. A5316), This was followed by incubation with horseradish peroxidase-conjugated secondary goat anti-rabbit (DAKO, cat. no. P0448) or goat anti-mouse (DAKO, cat. no. P0447) antibody. Chemiluminescence was detected using the Western Lightning Chemiluminescence system (Thermo Scientific, USA) and ImageQuant™ LAS 4000 biomolecular imager (GE Healthcare Life Sciences, USA). Band intensity in images generated with the LAS 4000 was quantified using NIH Image J. […]

## CCOC(=O)Nc1ccc2c(c1)C(=O)N(CC)c1ccccc1O2 [BT2, (10-ethyl-11-oxo-10,11-dihydro-dibenzo[b,f][1,4]oxazepin-2-yl)-carbamic acid ethyl ester]
A375 cells
  invasion into the denuded zone of Matrigel: suppressed
MeWo cells
  invasion into the denuded zone of Matrigel: suppressed
p-ERK (Thr^202/Tyr^204)
  ERK phosphorylation (p-ERK, Western blot): suppressed ERK phosphorylation
PD-1 [1]; 0.1 μM, 48 h (FIG. 17A)
  reduction of PD-1 expression: 50%
PD-1 [1]; 3 μM, 24 h
  inhibition of PD-1 levels: 50%
PD-1 [1]; 3 μM, 48 h, dose response (FIG. 17A)
  reduction of PD-1 expression: 80%
PD-1 [1]; 3 μM, 48 h
  inhibition of PD-1 levels: 80%
PD-1 [2]
  PD-1 expression (Western blot): suppressed by BT2 in a dose-dependent manner
CD28
  induction of JUN after preincubation of BT2 with EGF: still induced JUN

Reference: US20250352555A1, “METHOD OF INCREASING IMMUNE CELL ACTIVATION AND/OR TREATING CANCER USING DIBENZOXAZEPINONES” (VASCULAR THERAPEUTICS PTY LTD, priority 2022, published 2025)
